From patent publication US6218393A, “Anthranilic acid derivatives as multi drug resistance modulators” (priority 1997, dated 2001)

Tests used:
AR 1.0 cells [1] = test: Drug accumulation assay: daunorubicin accumulation in AR 1.0 cells; assay type: cell-based; settings: Mus musculus, 100% = accumulation with verapamil 100 μM, 1 hr, 37° C.
How it was run: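 AR 1.0 is the MDR-resistant subline of EMT6 mouse mammary carcinoma, grown in RPMI 1640 with 10% foetal calf serum and 2 mM glutamine at 37 °C, 5% CO2. Cells were seeded 48 h before the daunorubicin accumulation assay.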

AR 1.0 cells [2] = test: Potentiation of doxorubicin toxicity: proliferation assay (sulphorhodamine B); assay type: cell-based, mouse
Source text: (a) Selected compounds of formula (I) were examined for their ability to potentiate the toxicity of doxorubicin in AR 1.0 cells.

AR 1.0 cells [3] = test: Potentiation index with doxorubicin titration; assay type: cell-based, mouse; settings: for Potentiation Index at RMA concentration 10 nM: Table C1, RMA 10 nM; for Potentiation Index at RMA concentration 30 nM: Table C1, RMA 30 nM; for Potentiation Index at RMA concentration 50 nM: Table C1, RMA 50 nM; for Potentiation Index at RMA concentration 100 nM: Table C1, RMA 100 nM
Procedure: The EMT6 mouse mammary carcinoma cell line and the MDR resistant subline AR 1.0 were cultured in RPMI 1640 medium containing 10% foetal calf serum and 2 mM glutamine at 37° C. in 5% CO2. Cells were passaged between 1 in 200 and 1 in 2000 in the case of the parental cell line and between 1 in 20 and 1 in 200 in the case of the MDR resistant subline, after trypsinisation (0.25% trypsin, 0.2 gl^-1, EDTA). […]
(b) Cells were cultured for four days with a titration of doxorubicin (0.263 nM-17.24 μM) in the presence of a fixed concentration of each compound. Proliferation was quantified as described by Skehen et al, loc cit. The IC50 (concentration required to reduce proliferation to 50% of the untreated controls) for doxorubicin alone and with each compound were derived and used to calculate the potentiation index (PI): [formula]

[4] = Mus musculus, 96 h, compound alone, four day proliferation, read-out: Compound Toxicity (IC50)
[5] = with fixed doxorubicin 0.34 μm, four days, 5760 min, read-out: Toxicity with Cytotoxic Agent (IC50)

IC50 (AR 1.0 cells [1])	Structure (SMILES)	IC50 (AR 1.0 cells [2]; [4])	IC50 (AR 1.0 cells [2]; [5])	toxicity of doxorubicin alone to AR 1.0 cells (AR 1.0 cells [2]; fixed concentration 0.34 μm)	Potentiation Index at RMA concentration 10 nM (AR 1.0 cells [3])	Potentiation Index at RMA concentration 30 nM (AR 1.0 cells [3])	Potentiation Index at RMA concentration 50 nM (AR 1.0 cells [3])	Potentiation Index at RMA concentration 100 nM (AR 1.0 cells [3])	Potentiation Index at RMA concentration 20 nM (AR 1.0 cells [3]; Table C1, RMA 20 nM)
3200 nM	COc1cc2c(cc1OC)CN(CCNC(=O)c1cc(-c3ccccc3)ccc1NC(=O)c1ccc(C(C)C)cc1)CC2 [compound 9432, 2-(4-Isopropyl-benzoylamino)-N-[2-(6,7-dimethoxy-3,4-dihydro-1H-isoquinolin-2-yl)-ethyl]-5-phenyl-benzamide]	35000 nM	200 nM						
1000 nM	COc1cc2c(cc1OC)CN(CCc1ccc(NC(=O)c3ccccc3NC(=O)c3ccsc3)cc1)CC2 [compound 9492, Thiophene-3-carboxylic acid (2-{4-[2-(6,7-dimethoxy-3,4-dihydro-1H-isoquinolin-2-yl)-ethyl]-phenylcarbamoyl}-phenyl)-amide]	3000 nM	20 nM						
500 nM	COc1cc2c(cc1OC)CN(CCc1ccc(NC(=O)c3ccccc3NC(=O)c3ccccn3)cc1)CC2 [compound 9472, Pyridine-2-carboxylic acid (2-{4-[2-(6,7-dimethoxy-3,4-dihydro-1H-isoquinolin-2-yl)-ethyl]-phenylcarbamoyl}-phenyl)-amide]	6500 nM	120 nM						
4300 nM	COc1cc2c(cc1OC)CN(CCc1ccc(NC(=O)c3ccccc3NC(=O)c3cccc(O)c3)cc1)CC2 [compound 9549, 2-(3-Hydroxy-benzoylamino)-N-{4-[2-(6,7-dimethoxy-3,4-dihydro-1H-isoquinolin-2-yl)-ethyl]-phenyl}-benzanlide]	5600 nM	520 nM						
1000 nM	COc1cc2c(cc1OC)CN(CCNC(=O)c1ccccc1NC(=O)c1cc3ccccc3[nH]1)CC2 [compound 9367]	15000 nM	500 nM						
	COc1cccc2c1C(=O)c1c(O)c3c(c(O)c1C2=O)C[C@@](O)(C(=O)CO)C[C@@H]3O[C@H]1C[C@H](N)[C@H](O)[C@H](C)O1 [doxorubicin, reference compound]			non-toxic					
800 nM	COc1cc2c(cc1OC)CN(CCc1ccc(NC(=O)c3ccccc3NC(=O)c3ccc4ccccc4n3)cc1)CC2 [compound 9545, Quinoline-2-carboxylic acid (2-{4.-[2-(6,7-dimethoxy-3,4-dihydro-1H-isoquinolin-2-yl)-ethyl]-phenylcarbamoyl}-phenyl)-amide]	1700 nM							
235 nM	COc1ccc(CCN(C)CCc2ccc(NC(=O)c3ccccc3NC(=O)c3cnc4ccccc4c3)cc2)cc1OC [compound 9630, Quinoline-3-carboxylic acid {2-[4-(2-{[2-(3,4-dimethoxy-phenyl)-ethyl]-methyl-amino}-ethyl)-phenylcarbamoyl]-phenyl}-amide]				1	2	6	26	
6420 nM	COc1cc2c(cc1OC)CN(CCCc1cccc(NC(=O)c3ccccc3NC(=O)c3cnc4ccccc4c3)c1)CC2 [compound 9660, Quinoline-3-carboxylic acid (2-{3-[3-(6,7-dimethoxy-31 4-dihydro-1H-isoquinolin-2-yi)-propyl]-phenyicarbamoyi}-phenyi)-atnide]					1.1	1.2	1.4	
108 nM	COc1ccc(CN(C)CCc2ccc(NC(=O)c3ccccc3NC(=O)c3cnc4ccccc4c3)cc2)cc1OC(C)C [compound 9639, Quinoline-3-carboxylic acid [2-(4-{2-[(3-isopropoxy-4-methoxy-benzyl)-methyl-amino]-ethyl}-phenylcarbamoyl)-phenyl]-amide]				2.6	34	78	136	
552 nM	COc1cc2c(cc1OC)CN(CCc1ccc(NC(=O)c3ccccc3NC(=O)c3coc(C)n3)cc1)CC2 [compound 9638, 2-Methyl-oxazole-4-carboxylic acid (2-{4-[2-(6,7-dimethoxy-3,4-dihydro-1H-isoquinolin-2-yl)-ethyl]-phenylcarbamoyl}-phenyl)-amide]					1.1	1.5	2.6	
389 nM	CCOc1cc2c(cc1OCC)CN(CCc1ccc(NC(=O)c3ccccc3NC(=O)c3cnc4ccccc4c3)cc1)CC2 [compound 9665, Quinoline-3-carboxylic acid (2-{4-[2-(6,7-diethoxy-3,4-dihydro-1H-isoquinolin-2-yl)-ethyl]-phenylcarbamoyl}-phenyl)-amide]				1.4	7	28	50	
370 nM	COc1cc2c(cc1OC)CN(CCc1ccc(NC(=O)c3cc(N(C)C)ccc3NC(=O)c3cnc4ccccc4c3)cc1)CC2 [compound 9595, Quinoline-3-carboxylic acid (2-{4-[2-(6,7-dimethoxy-3,4-dihydro-1H-isoquinolin-2-yl)-ethyl]-phenylcarbamoyl}-4-dimethylamino-phenyl)-amide]				1.45	1.93	2.99	45	
362 nM	COc1ccc(CN(C)Cc2ccc(NC(=O)c3ccccc3NC(=O)c3cccnc3)cc2)cc1OC(C)C [compound 9661, N-[2-(4-{[(3-Isopropoxy-4-methoxy-benzyl)-methyl-amino]-methyl}-phenylcarbamoyl)-phenyl]-nicotinamide]				1.2	38	71	195	
1680 nM	O=C(Nc1ccccc1C(=O)Nc1ccc(CCN2CCc3cc4c(cc3C2)OCO4)cc1)c1cnc2ccccc2c1 [compound 9664, Quinoline-3-carboxylic acid (2-{4-[2-(7,8-dihydro-5H-[1,3]dioxolo[4,5-g]isoquinolin-6-yl)-ethyl]-phenylcarbamoyl}-phenyl)-amide]				1	1.9	37	116	
71 nM	COc1cc(CCN2CCc3cc(OC)c(OC)cc3C2)ccc1NC(=O)c1ccccc1NC(=O)c1cnc2ccccc2c1 [compound 9651, Quinoline-3-carboxylic acid (2-{4-[2-(6,7-dimethoxy-3,4-dihydro-1H-isoquinolin-2-yl)-ethyl]-2-methoxy-phenylcarbamoyl}-phenyl)-amide]						1.1	2.2	
207 nM	COc1cc2c(cc1OC)CN(CCc1ccc(NC(=O)c3nccnc3NC(=O)c3cnc4ccccc4c3)cc1)CC2 [compound 9622, Quinoline-3-carboxylic acid (3-{4-[2-(6,7-dimethoxy-3,4-dihydro-1H-isoquinolin-2-yl)-ethyl]-phenylcarbamoyl}-pyrazin-2-yl)-amide]				1.8	15	46	79	8
